Twelve molecules from ChEMBL document CHEMBL1932921, “Synthesis and anticonvulsant evaluation of some new 2,3,8-trisubstituted-4(3H)-quinazoline derivatives” (Bioorg Med Chem Lett, 2012) can be followed below.

Molecules are shown by their SMILES. Activity calls are given as the source filed them. The calls are words filed in the database; no cut-off is given here.

Data set [1] concerns Mus musculus. Description: Anticonvulsant activity in Swiss albino mouse assessed as protection against strychnine-induced seizure at 0.5 mmol/kg, ip administered 30 mins before challenge. It is filed as functional, organism-based.
Data set [2] concerns Mus musculus. Description: Anticonvulsant activity in Swiss albino mouse assessed as protection against picrotoxin-induced seizure at 0.5 mmol/kg, ip administered 30 mins before challenge. Type of data set: functional, organism-based.
For data set [3], the system named is Mus musculus. Description: Anticonvulsant activity in Swiss albino mouse assessed as protection against maximal electroshock-induced seizure at 0.5 mmol/kg, ip administered 30 mins before challenge. It is filed as functional.
Data set [4] concerns Mus musculus. As to the kind of experiment: Anticonvulsant activity in Swiss albino mouse assessed as protection against PTZ-induced seizure at 0.5 mmol/kg, ip administered 30 mins before challenge. Type of data set: functional.
A short description of data set [5]: Therapeutic index, ratio of LD50 for mortality to ED50 for anticonvulsant activity in Swiss albino mouse. It is filed as organism-based. The settings on record: in vivo, read-out: TI.
Data set [6] has as its system Mus musculus. Description: Anticonvulsant activity in Swiss albino mouse assessed as protection against maximal electroshock-induced seizure at 200 mg/kg, ip administered 30 mins before challenge. The settings on record: route intraperitoneal. It is filed as functional.
The nature of data set [7]: Neurotoxicity in ip dosed Swiss albino mouse assessed as mortality. As to conditions: in vivo. It is filed as toxicity, organism-based.
For data set [8], the system named is Mus musculus. As to the kind of experiment: Anticonvulsant activity in Swiss albino mouse assessed as protection against PTZ-induced clonic seizure at 200 mg/kg, ip administered 30 mins before challenge. It is filed as functional. The settings on record: route intraperitoneal.
The species named for data set [9] is Mus musculus. Description: Protective index, ratio of TD50 for neurotoxicity to ED50 for anticonvulsant activity in Swiss albino mouse. It is filed as functional.
A short description of data set [10]: Neurotoxicity in ip dosed Swiss albino mouse measured after 30 mins by chimney test. The settings on record: in vivo. It is filed as toxicity, organism-based.
Data set [11] deals with Mus musculus. As to the kind of experiment: Anticonvulsant activity in ip dosed Swiss albino mouse assessed as protection against PTZ-induced seizure compound administered 30 mins before challenge measured after 60 mins. Type of data set: functional.
In data set [12] the test system is Mus musculus. As to the kind of experiment: Anticonvulsant activity in Swiss albino mouse assessed as protection against maximal electroshock-induced seizure at 300 mg/kg, ip administered 30 mins before challenge. Type of data set: functional. As to conditions: route intraperitoneal. Background: In the maximal electroshock model the usual endpoint is tonic extension of the hind limbs.

Data set [13] concerns Mus musculus. As to the kind of experiment: Anticonvulsant activity in Swiss albino mouse assessed as protection against PTZ-induced clonic seizure at 300 mg/kg, ip administered 30 mins before challenge. Type of data set: functional. As to conditions: route intraperitoneal.

As for `COc1ccccc1/C=N\NC(=O)COc1cccc2c(=O)n(-c3ccccc3C)c(C)nc12`, the inhibition entry in the data set with Mus musculus [1] and in the data set on Mus musculus [2] was “inactive” each time. In addition, the inhibition in vivo at 500 µmol/kg with Mus musculus [3] is 0%; in the data set on Mus musculus [4], 33%.
For the molecule `Cc1ccccc1-n1c(C)nc2ccccc2c1=O` [METHAQUALONE], the therapeutic index in data set [5] turned out to be 2.5. Also, the inhibition in vivo at 200 mg/kg in the data set on Mus musculus [6] and in the data set on Mus musculus [8] was 100% in each case. Besides, the LD50 in data set [7] stood at 500 mg/kg. Moreover, the PI in the data set listed under Mus musculus [9] is on record as 2. This molecule returned a TD50 at 0.5 h in [10] of 400 mg/kg. For the same molecule, the ED50 with Mus musculus [11] amounted to 200 mg/kg.
On to `CSC(=S)NNC(=O)COc1cccc2c(=O)n(-c3ccccc3C)c(C)nc12`, for which the therapeutic index in data set [5] was 3.34. In addition, in data set [7], the LD50 amounted to 501 mg/kg. For the same molecule, the inhibition result in the data set with Mus musculus [1] and with Mus musculus [2] was “inactive” each time. Besides, the inhibition in vivo at 500 µmol/kg in the data set with Mus musculus [3] and in the data set with Mus musculus [4] was 100% each time. The PI in the data set listed under Mus musculus [9] is listed as 1.91. For the same molecule, the TD50 at 0.5 h in data set [10] was 287 mg/kg. Besides, the ED50 with Mus musculus [11] worked out at 150 mg/kg.
On to `Cc1ccccc1-n1c(C)nc2c(OCC(=O)N/N=C\c3ccccc3F)cccc2c1=O`, for which the inhibition result with Mus musculus [1] and with Mus musculus [2] was “inactive” each time. Besides, the inhibition in vivo at 500 µmol/kg in the data set with Mus musculus [3] came out at 50%; with Mus musculus [4], 66%.
`Cc1ccccc1-n1c(C)nc2c(OCC(=O)NCCO)cccc2c1=O`: the inhibition entry in the data set with Mus musculus [1] and in the data set on Mus musculus [2] was “inactive” each time. Moreover, the figures for the inhibition in vivo at 500 µmol/kg in the data set with Mus musculus [3] and in the data set on Mus musculus [4] were 0% and 50%, respectively.
For `Cc1ccccc1-n1c(C)nc2c(OCC(=O)NNC(=S)NN)cccc2c1=O`, the inhibition entry with Mus musculus [1] and in the data set on Mus musculus [2] was “inactive” throughout. In addition, the inhibition in vivo at 500 µmol/kg was determined as 33% in the data set with Mus musculus [3] and 66% with Mus musculus [4].
For `Cc1ccccc1-n1c(C)nc2c(OCC(=O)NNC(=O)NN)cccc2c1=O`, the inhibition result in the data set with Mus musculus [1] and with Mus musculus [2] was “inactive” in each case. The inhibition in vivo at 500 µmol/kg turned out to be 0% with Mus musculus [3] and 50% in the data set on Mus musculus [4].
Turning to `Cc1ccccc1-n1c(C)nc2c(OCC(=O)NNC(N)=O)cccc2c1=O`, the inhibition entry in the data set with Mus musculus [1] and in the data set on Mus musculus [2] was “inactive” throughout. In addition, the values for the inhibition in vivo at 500 µmol/kg with Mus musculus [3] and with Mus musculus [4] were 0% and 50%, respectively.
Turning to `CCCC(CCC)C(=O)[O-].[Na+]` [VALPROATE SODIUM], the inhibition in vivo at 300 mg/kg in the data set on Mus musculus [12] and with Mus musculus [13] was 100% each time. The LD50 in data set [7] was 500 mg/kg. The same molecule registered a TD50 at 0.5 h in data set [10] of 450 mg/kg. Besides, the ED50 in the data set with Mus musculus [11] came out at 300 mg/kg.
For the molecule `Cc1ccccc1-n1c(C)nc2c(OCC(=O)NN)cccc2c1=O`, in data set [5], the therapeutic index is 10.2. The LD50 in data set [7] amounted to 1000 mg/kg. The inhibition entry with Mus musculus [1] and in the data set on Mus musculus [2] was “inactive” each time. For the same molecule, the inhibition in vivo at 500 µmol/kg is 50% with Mus musculus [3] and 100% in the data set with Mus musculus [4]. In addition, the PI in the data set listed under Mus musculus [9] amounted to 2.72. Moreover, the TD50 at 0.5 h in data set [10] was determined as 267 mg/kg. In the data set with Mus musculus [11], the median effective dose (ED50) amounted to 98 mg/kg.
Consider `CCOC(=O)NNC(=O)COc1cccc2c(=O)n(-c3ccccc3C)c(C)nc12`, for which the therapeutic index in [5] came to 1.53. The median lethal dose (LD50) in data set [7] worked out at 418 mg/kg. Further, the inhibition result with Mus musculus [1] and with Mus musculus [2] was “inactive” in each case. In addition, the inhibition in vivo at 500 µmol/kg with Mus musculus [3] and with Mus musculus [4] was 100% throughout. Also, the PI in the data set listed under Mus musculus [9] is listed as 2.61. This molecule also yielded a TD50 at 0.5 h in [10] of 246 mg/kg. Besides, the ED50 in the data set with Mus musculus [11] came out at 160 mg/kg.
Turning to `Cc1ccccc1-n1c(C)nc2c(OCC(=O)N/N=C\c3ccccc3)cccc2c1=O`, the inhibition result with Mus musculus [1] and in the data set with Mus musculus [2] was “inactive” in each case. Moreover, the inhibition in vivo at 500 µmol/kg was determined as 0% in the data set with Mus musculus [3] and 50% in the data set with Mus musculus [4].

The inhibition in vivo is the relative decrease from the control value, in per cent. Usually LD50 stands for the dose at which mortality reaches 50%. As usually defined, the TD50 is the 50% point of the dose-response relation for the toxic effect studied. Low readings indicate greater toxicity, high ones lower toxicity. In general, ED50 refers to the dose at which the effect has come halfway, by size or by number of responders.
